# Values of other authors as cited in patent publication US20030118652A1 (priority 2001, published 2003).
# What was measured:
# [1] = target: cytochrome P450 isoform CYP2D6 (Homo sapiens, UniProt P10635); settings: (R)- versus (S)-bisoprolol; stated as 'it is believed'
# [2] = (R)- versus (S)-bisoprolol
# [3] = following administration of racemic bisoprolol; (S)- versus (R)-bisoprolol
# Chain of cytochrome P450 isoform CYP2D6 (P10635 whole entry, canonical isoform): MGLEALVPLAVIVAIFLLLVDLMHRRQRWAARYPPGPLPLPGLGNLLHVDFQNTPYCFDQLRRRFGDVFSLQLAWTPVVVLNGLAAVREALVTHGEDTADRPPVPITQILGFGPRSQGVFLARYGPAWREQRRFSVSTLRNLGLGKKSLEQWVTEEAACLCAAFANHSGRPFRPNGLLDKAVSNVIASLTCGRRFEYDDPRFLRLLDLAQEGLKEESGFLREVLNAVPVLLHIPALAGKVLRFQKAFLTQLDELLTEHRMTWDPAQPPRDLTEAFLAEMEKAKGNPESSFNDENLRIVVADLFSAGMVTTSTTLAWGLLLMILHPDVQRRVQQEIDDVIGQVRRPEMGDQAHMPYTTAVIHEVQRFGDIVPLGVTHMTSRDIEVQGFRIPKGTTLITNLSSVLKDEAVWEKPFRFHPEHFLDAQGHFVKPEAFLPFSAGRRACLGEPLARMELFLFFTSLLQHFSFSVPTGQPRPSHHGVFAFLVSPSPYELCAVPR
structure (smiles),measurement,setting,value
"CC(C)NCC(O)COc1ccc(COCCOC(C)C)cc1 (racemic) [racemic bisoprolol, 1-[4-[[2-(1-methylethoxy)ethoxy]-methyl]phenoxy]-3-[(1-methylethyl)amino]-2-propanol]",side effects on the peripheral circulation,Bailliart et al. 1987,adverse side effects on the peripheral circulation
same,bronchoconstrictor side effects,Dorow et al. 1986,"bronchoconstrictor effects, including wheeziness and breathlessness"
same,effects on carbohydrate metabolism,"Janka et al. 1986, patients with diabetes",effects on carbohydrate metabolism that are deleterious to patients with diabetes
CC(C)NC[C@@H](O)COc1ccc(COCCOC(C)C)cc1 [(R)-bisoprolol],rate of oxidative metabolism by CYP2D6,[1],greater rate
same,rate of renal clearance,[2],greater
CC(C)NC[C@H](O)COc1ccc(COCCOC(C)C)cc1 [(S)-bisoprolol],elimination half-life,[3],slightly higher
